Legend:
Type in all cases: in vivo
[1] = test system: caterpillars of the fall army worm (Spodoptera frugiperda); assay: Spodoptera frugiperda spray test (cotton leaves); settings: 168 h, after 7 days
Description: Spodoptera frugiperda—spray test • Solvent: 14 parts by weight of dimethylformamide • Emulsifier: alkylaryl polyglycol ether
To produce a suitable preparation of active compound, 1 part by weight of active compound is mixed with the stated amount of solvent and is diluted with water, containing an emulsifier concentration of 1000 ppm, to the desired concentration. Further test concentrations are prepared by dilution with emulsifier containing water. Ammonium salt and/or penetration enhancer in a dosage of 1000 ppm are added to the desired concentration if necessary.
Cotton leaves (Gossypium hirsutum) are treated by being sprayed with the preparation of the active compound of the desired concentration and are infested with caterpillars of the fall army worm (Spodoptera frugiperda).
After 7 days mortality in % is determined. 100% means all the caterpillars have been killed and 0% means none of the caterpillars have been killed.

[2] = test system: Rhipicephalus microplus larvae (strain Parkhurst, resistant against synthetic pyrethroids); assay: Rhipicephalus (Boophilus) microplus in-vitro contact test, larval cattle tick; settings: 5 μg/cm^2 (=500 g/ha), after 48 hours, read-out: efficacy (larvae dead or moribund)
In short: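 After drying, 20-50 larvae were held per tube at 27° C., 85% relative humidity for 48 h, and efficacy was scored as % dead or moribund.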

[3] = test system: adult cat fleas (Ctenocephalides felis); assay: Ctenocephalides felis in-vitro contact test, adult cat flea; settings: 5 μg/cm^2 (=500 g/ha), after 48 hours
In short: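 After 48 h of room-temperature exposure in tubes whose walls carried dried compound residue (5 μg/cm^2, from 900 ppm acetone solution), adult cat fleas (5-10 per tube) were heat-challenged at 45-50° C up to 5 min. Fleas unable to climb away were counted dead or moribund, expressed as % efficacy.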

[4] = test system: adult brown dog ticks (Rhipicephalus sanguineus); assay: Rhipicephalus sanguineus in-vitro contact test with adult brown dog ticks; settings: 5 μg/cm^2 (=500 g/ha), after 48 hours, read-out: efficacy (ticks dead or moribund)
Description: Rhipicephalus sanguineus—In-Vitro Contact Tests with Adult Brown Dog Ticks
9 mg compound is solved in 1 mL acetone and diluted with acetone to the desired concentration. 250 μL of the test solution is filled in 25 mL glass test tubes and homogeneously distributed on the inner walls by rotation and tilting on a shaking device (2 h at 30 rpm). With a compound concentration of 900 ppm, an inner surface of 44.7 cm^2 and a homogeneous distribution, a dose of 5 μg/cm^2 is achieved.
After the solvent has evaporated, each test tube is filled with 5-10 adult brown dog ticks (Rhipicephalus sanguineus), closed with a perforated lid and incubated in a lying position at room temperature and relative humidity. After 48 hours efficacy is determined. The ticks are patted on the ground of the tubes and are incubated on a heating plate at 45-50° C. for at most 5 minutes. Immotile or uncoordinated moving ticks, which are not able to escape the heat by climbing upwards, are marked as dead or moribund.
An efficacy of 100% means all ticks are dead or moribund; 0% means no ticks are dead or moribund.

Row | SMILES | mortality at 20 ppm [1] [%] | pest or weed control at 5 µg/cm2 [2] [%] | efficacy (fleas dead or moribund) [3] [%] | pest or weed control at 5 µg/cm2, 500 g/ha [4] [%]
1 | C[C@H](NC(=O)c1cc(OC(F)(F)F)cc(S(C)(=O)=O)c1)c1ncnn1-c1ncc(C#N)s1 [I-93] | 100 |  |  | 
2 | C[C@H](NC(=O)c1cc(OC(F)F)cc(OC(F)F)c1)c1ncnn1-c1ncc(C#N)s1 [I-94] | 100 | 100 | 100 | 100
3 | C[C@H](NC(=O)c1cc(Cl)cc(OC(F)(F)F)c1)c1ncnn1-c1ncc(C#N)s1 [I-96] | 100 |  |  | 
4 | C[C@H](NC(=O)c1cc(C(F)F)cc(C(F)F)c1)c1ncnn1-c1ncc(C#N)s1 [I-97] | 100 | 100 | 100 | 100
5 | C[C@H](NC(=O)c1cc(OC(F)(F)F)cc(C(F)F)c1)c1ncnn1-c1ncc(C#N)s1 [I-98] | 100 | 100 | 100 | 100

— patent US20230065953A1, “NOVEL HETEROARYL-TRIAZOLE COMPOUNDS AS PESTICIDES” (Bayer Aktiengesellschaft, priority 2019, published 2023)
